Laboratory results reported in patent US10053417B2, “Neprilysin inhibitors” (THERAVANCE BIOPHARMA R&D IP, LLC, priority 2013, dated 2018).

Target: T1, human NEP (Homo sapiens, UniProt P08473)
T1 construct: purchased R&D Systems, Minneapolis, Minn; 1182-ZN
Experiment: In vitro enzyme inhibition assay, inhibitor potency at human NEP (Assay 1)
Assay type: biochemical
Details: recombinant human NEP; fluorogenic peptide substrate 10 μM; 37° C.; values given as ranges
Method: The inhibitory activities of compounds at human and rat neprilysin (EC 3.4.24.11; NEP) and human angiotensin converting enzyme (ACE) were determined using in vitro assays as described below.
Recombinant human NEP and recombinant human ACE were obtained commercially (R&D Systems, Minneapolis, Minn., catalog numbers 1182-ZN and 929-ZN, respectively). The fluorogenic peptide substrate Mca-D-Arg-Arg-Leu-Dap-(Dnp)-OH (Medeiros et al. (1997) Braz. J. Med. Biol. Res. 30:1157-62; Anaspec, San Jose, Calif.) and Abz-Phe-Arg-Lys(Dnp)-Pro-OH (Araujo et al. (2000) Biochemistry 39:8519-8525; Bachem, Torrance, Calif.) were used in the NEP and ACE assays respectively.
The assays were performed in 384-well white opaque plates at 37° C. using the fluorogenic peptide substrates at a concentration of 10 μM in Assay Buffer (NEP: 50 mM HEPES, pH 7.5, 100 mM NaCl, 0.01% polyethylene glycol sorbitan monolaurate (Tween-20), 10 μM ZnSO4; ACE: 50 mM HEPES, pH 7.5, 100 mM NaCl, 0.01% Tween-20, 1 μM ZnSO4).
Test compounds were assayed over the range of concentrations from […] to 20 μM. Test compounds were added to the enzymes and incubated for 30 minute at 37° C. prior to initiating the reaction by the addition of substrate. Reactions were terminated after 20 minutes of incubation at 37° C. by the addition of glacial acetic acid to a final concentration of 3.6% (v/v).
Plates were read on a fluorometer with excitation and emission wavelengths set to 320 nm and 405 nm, respectively. Inhibition constants were obtained by nonlinear regression of the data using the equation (GraphPad Software, Inc., San Diego, Calif.): ν=ν0/[1+(I/K′)] where ν is the reaction rate, ν0 is the uninhibited reaction rate, I is the inhibitor concentration and K′ is the apparent inhibition constant.
Compounds of the invention were tested in this assay and found to have pKi values at human NEP as follows.

T1 sequence (P08473 52-750 limits assumed): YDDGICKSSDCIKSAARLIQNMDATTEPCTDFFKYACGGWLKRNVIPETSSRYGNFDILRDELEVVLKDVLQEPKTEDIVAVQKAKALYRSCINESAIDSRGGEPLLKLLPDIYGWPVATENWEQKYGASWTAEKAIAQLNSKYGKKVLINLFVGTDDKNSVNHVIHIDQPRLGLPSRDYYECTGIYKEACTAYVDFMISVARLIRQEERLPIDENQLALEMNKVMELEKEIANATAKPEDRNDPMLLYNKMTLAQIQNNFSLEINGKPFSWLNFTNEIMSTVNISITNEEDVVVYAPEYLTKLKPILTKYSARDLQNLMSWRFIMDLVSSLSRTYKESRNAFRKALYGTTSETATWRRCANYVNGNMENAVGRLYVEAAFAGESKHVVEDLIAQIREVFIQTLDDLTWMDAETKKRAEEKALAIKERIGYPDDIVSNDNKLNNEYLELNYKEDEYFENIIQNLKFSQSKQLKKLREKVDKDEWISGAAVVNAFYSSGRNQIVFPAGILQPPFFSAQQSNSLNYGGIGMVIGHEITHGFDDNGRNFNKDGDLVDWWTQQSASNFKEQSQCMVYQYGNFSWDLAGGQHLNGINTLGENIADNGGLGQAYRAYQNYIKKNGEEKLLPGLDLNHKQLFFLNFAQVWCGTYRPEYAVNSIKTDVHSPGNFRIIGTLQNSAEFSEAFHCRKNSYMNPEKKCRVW

Ki [nM]	pKi	Structure (SMILES)
1 to 10		O=C(N[C@H](Cc1ccc(-c2cccc(Cl)c2)cc1)C[C@@H](O)C(=O)O)C(=O)N1CCC[C@@H](O)C1 [Example 4-21, (2R,4R)-5-(3′-Chlorobiphenyl-4-yl)-2-hydroxy-4-[2-((R)-3-hydroxy-piperidin-1-yl)-2-oxo-acetylamino]pentanoic acid]
10 to 31.6		O=C(COc1ccccc1)N[C@H](Cc1ccc(-c2cccc(Cl)c2)cc1)C[C@@H](O)C(=O)O [Example 10-7, (2R,4R)-5-(3′-Chlorobiphenyl-4-yl)-2-hydroxy-4-(2-phenoxyacetylamino)-pentanoic acid]
1 to 10		O=C(N[C@H](Cc1ccc(-c2cccc(Cl)c2)cc1)C[C@@H](O)C(=O)O)C(=O)N1CC(O)C1 [Example 4-13, (2R,4R)-5-(3′-Chlorobiphenyl-4-yl)-2-hydroxy-4-[2-(3-hydroxyazetidin-1-yl)-2-oxo-acetylamino]pentanoic acid]
10 to 31.6		CC(C)CNNC(=O)C(=O)N[C@H](Cc1ccc(-c2cccc(Cl)c2)cc1)C[C@@H](O)C(=O)O [Example 6-2, (2R,4R)-5-(3′-Chlorobiphenyl-4-yl)-2-hydroxy-4-[(N′-isobutylhydrazinooxalyl)-amino]pentanoic acid]
10 to 31.6		O=C(NC1CCCC1)C(=O)N[C@H](Cc1ccc(-c2cccc(Cl)c2)cc1)C[C@@H](O)C(=O)O [Example 4-1, (2R,4R)-5-(3′-Chlorobiphenyl-4-yl)-4-(cyclopentylaminooxalylamino)-2-hydroxypentanoic acid]
≤ 1		O=C(N[C@H](Cc1ccc(-c2cccc(Cl)c2)cc1)C[C@@H](O)C(=O)O)C(=O)N1CCC(O)CC1 [Example 4-18, (2R,4R)-5-(3′-Chlorobiphenyl-4-yl)-2-hydroxy-4-[2-(4-hydroxy-piperidin-1-yl)-2-oxo-acetylamino]pentanoic acid]
	7.5-8.0	CN(O)C(=O)C(=O)N[C@H](Cc1ccc(-c2cccc(Cl)c2)cc1)C[C@@H](O)C(=O)O [Example 4-10, (2R,4R)-5-(3′-Chlorobiphenyl-4-yl)-2-hydroxy-4-[(hydroxymethylaminooxalyl)-amino]pentanoic acid]
1 to 10		C[C@@](CO)(C[C@@H](Cc1ccc(-c2cccc(Cl)c2)cc1)NC=O)C(=O)O [Example 13, (2S,4R)-5-(3′-Chlorobiphenyl-4-yl)-4-formylamino-2-hydroxymethyl-2-methyl-pentanoic Acid]
1 to 10		O=C(NNc1ccccc1)C(=O)N[C@H](Cc1ccc(-c2cccc(Cl)c2)cc1)C[C@@H](O)C(=O)O [Example 6-17, (2R,4R)-5-(3′-Chlorobiphenyl-4-yl)-2-hydroxy-4-[(N′-phenylhydrazinooxalyl)-amino]pentanoic acid]
10 to 31.6		O=C(N[C@H](Cc1ccc(-c2cccc(Cl)c2)cc1)C[C@@H](O)C(=O)O)C(=O)N1CCC(F)CC1 [Example 4-31, (2R,4R)-5-(3′-Chlorobiphenyl-4-yl)-4-[2-(4-fluoropiperidin-1-yl)-2-oxo-acetylamino]-2-hydroxypentanoic acid]
1 to 10		O=C(CO)N[C@H](Cc1ccc(-c2cccc(Cl)c2)cc1)C[C@@H](O)C(=O)O [Example 10-1, (2R,4R)-5-(3′-Chlorobiphenyl-4-yl)-2-hydroxy-4-(2-hydroxyacetylamino)-pentanoic acid]
1 to 10		O=C(N[C@H](Cc1ccc(-c2cccc(Cl)c2)cc1)C[C@@H](O)C(=O)O)C(=O)N1CCCO1 [Example 4-48, (2R,4R)-5-(3′-Chlorobiphenyl-4-yl)-2-hydroxy-4-(2-isoxazolidin-2-yl-2-oxo-acetylamino)pentanoic acid]
1 to 10		Cc1ccccc1NNC(=O)C(=O)N[C@H](Cc1ccc(-c2cccc(Cl)c2)cc1)C[C@@H](O)C(=O)O [Example 6-10, (2R,4R)-5-(3′-Chlorobiphenyl-4-yl)-2-hydroxy-4-[(N′-o-tolyl-hydrazinooxalyl)-amino]-pentanoic acid]
10 to 31.6		O=C(N[C@H](Cc1ccc(-c2cccc(Cl)c2)cc1)C[C@@H](O)C(=O)O)C(=O)NN1CCOCC1 [Example 4-8, (2R,4R)-5-(3′-Chlorobiphenyl-4-yl)-2-hydroxy-4-[(morpholin-4-ylaminooxalyl)-amino]pentanoic acid]
1 to 10		O=C(NNC(=O)c1ccc(Cl)nc1)C(=O)N[C@H](Cc1ccc(-c2cccc(Cl)c2)cc1)C[C@@H](O)C(=O)O [Example 8-2, (2R,4R)-5-(3′-Chlorobiphenyl-4-yl)-4-{2-[N′-(6-chloro-pyridine-3-carbonyl)-hydrazino]-2-oxo-acetylamino}-2-hydroxypentanoic acid]
10 to 31.6		CCOC(=O)N1CCN(C(=O)C(=O)N[C@H](Cc2ccc(-c3cccc(Cl)c3)cc2)C[C@@H](O)C(=O)O)CC1 [Example 4-35, 4-[(1R,3R)-3-Carboxy-1-(3′-chlorobiphenyl-4-ylmethyl)-3-hydroxy-propylaminooxalyl]-piperazine-1-carboxylic acid ethyl ester]
1 to 10		CC(C)CC(=O)C(=O)N[C@H](Cc1ccc(-c2cccc(Cl)c2)cc1)C[C@@H](O)C(=O)O [Example 2-1, (2R,4R)-5-(3′-Chloro-biphenyl-4-yl)-2-hydroxy-4-(4-methyl-2-oxo-pentanoylamino)-pentanoic acid]
10 to 31.6		O=C(N[C@H](Cc1ccc(-c2cccc(Cl)c2)cc1)C[C@@H](O)C(=O)O)C(=O)N1CC(F)(F)C1 [Example 4-14, (2R,4R)-5-(3′-Chlorobiphenyl-4-yl)-4-[2-(3,3-difluoroazetidin-1-yl)-2-oxo-acetylamino]-2-hydroxypentanoic acid]
10 to 31.6		CN1CCN(C(=O)C(=O)N[C@H](Cc2ccc(-c3cccc(Cl)c3)cc2)C[C@@H](O)C(=O)O)CC1 [Example 4-34, (2R,4R)-5-(3′-Chlorobiphenyl-4-yl)-2-hydroxy-4-[2-(4-methyl-piperazin-1-yl)-2-oxo-acetylamino]pentanoic acid]
1 to 10		COc1ccc(NNC(=O)C(=O)N[C@H](Cc2ccc(-c3cccc(Cl)c3)cc2)C[C@@H](O)C(=O)O)cc1 [Example 6-15, (2R,4R)-5-(3′-Chlorobiphenyl-4-yl)-2-hydroxy-4-{[N′-(4-methoxyphenyl)-hydrazinooxalyl]amino}pentanoic acid]
1 to 10		O=C(N[C@H](Cc1ccc(-c2cccc(Cl)c2)cc1)C[C@@H](O)C(=O)O)C(=O)N1CCC(CCO)CC1 [Example 4-24, (2R,4R)-5-(3′-Chlorobiphenyl-4-yl)-2-hydroxy-4-{2-[4-(2-hydroxyethyl)-piperidin-1-yl]-2-oxo-acetylamino}pentanoic acid]
1 to 10		O=C(N[C@H](Cc1ccc(-c2cccc(Cl)c2)cc1)C[C@@H](O)C(=O)O)C(=O)N1CCOCC1 [Example 4-44, (2R,4R)-5-(3′-Chlorobiphenyl-4-yl)-2-hydroxy-4-(2-morpholin-4-yl-2-oxo-acetylamino)pentanoic acid]
10 to 31.6		O=C(NNC1=NCCN1)C(=O)N[C@H](Cc1ccc(-c2cccc(Cl)c2)cc1)C[C@@H](O)C(=O)O [Example 6-6, (2R,4R)-5-(3′-Chlorobiphenyl-4-yl)-4-{[N′-(4,5-dihydro-1H-imidazol-2-yl)-hydrazinooxalyl]-amino}-2-hydroxypentanoic acid]
10 to 31.6		CC(C)OCC(=O)N[C@H](Cc1ccc(-c2cccc(Cl)c2)cc1)C[C@@H](O)C(=O)O [Example 10-4, (2R,4R)-5-(3′-Chlorobiphenyl-4-yl)-2-hydroxy-4-(2-isopropoxyacetylamino)-pentanoic acid]
1 to 10		Cc1cccc(NNC(=O)C(=O)N[C@H](Cc2ccc(-c3cccc(Cl)c3)cc2)C[C@@H](O)C(=O)O)c1 [Example 6-16, (2R,4R)-5-(3′-Chlorobiphenyl-4-yl)-2-hydroxy-4-[(N′-m-tolylhydrazinooxalyl)-amino]pentanoic acid]
1 to 10		Cc1ccc(NNC(=O)C(=O)N[C@H](Cc2ccc(-c3cccc(Cl)c3)cc2)C[C@@H](O)C(=O)O)cc1 [Example 6-11, (2R,4R)-5-(3′-Chlorobiphenyl-4-yl)-2-hydroxy-4-[(N′-p-tolyl-hydrazinooxalyl)-amino]-pentanoic acid]
≤ 1		O=C(NNC(=O)c1ccccc1O)C(=O)N[C@H](Cc1ccc(-c2cccc(Cl)c2)cc1)C[C@@H](O)C(=O)O [Example 7, (2R,4R)-5-(3′-Chlorobiphenyl-4-yl)-2-hydroxy-4-{2-[N′-(2-hydroxybenzoyl)hydrazino]-2-oxo-acetylamino}pentanoic Acid]
1 to 10		O=C(NNc1ccccc1F)C(=O)N[C@H](Cc1ccc(-c2cccc(Cl)c2)cc1)C[C@@H](O)C(=O)O [Example 6-8, (2R,4R)-5-(3′-Chlorobiphenyl-4-yl)-4-{[N′-(2-fluoro-phenyl)-hydrazinooxalyl]-amino}-2-hydroxypentanoic acid]
